Reference: ChEMBL document CHEMBL3044865, “Herbicidal Activity and Characteristics of Pyraflufen-ethyl for Controlling Broad-leaved Weeds in Cereals” (J Pestic Sci, 2002)
Activity calls are given as the source filed them. The rule behind the calls is not given here.

What was measured:
[1] = test system: Triticum aestivum; test: Phytotoxicity in Triticum aestivum (wheat) assessed as injury at 10 g/ha post emergence application measured after 21 days after treatment; format: organism-based; details: in vivo, other, 504 h
[2] = test system: Avena fatua; test: Herbicidal activity against Avena fatua assessed as killing at 1 g/ha post emergence application measured after 21 days after treatment; format: functional
[3] = test system: Alopecurus myosuroides; test: Herbicidal activity against Alopecurus myosuroides assessed as killing at 300 g/ha post emergence application measured after 21 days after treatment; format: functional
[4] = test system: Alopecurus myosuroides; test: Herbicidal activity against Alopecurus myosuroides assessed as killing at 100 g/ha post emergence application measured after 21 days after treatment; format: functional, organism-based
[5] = test system: Alopecurus myosuroides; test: Herbicidal activity against Alopecurus myosuroides assessed as killing at 30 g/ha post emergence application measured after 21 days after treatment; format: functional, organism-based
[6] = test system: Alopecurus myosuroides; test: Herbicidal activity against Alopecurus myosuroides assessed as killing at 10 g/ha post emergence application measured after 21 days after treatment; format: functional
[7] = test system: Viola arvensis; test: Ratio of compound ED90 to necoprop-p ED90 for herbicidal activity against Viola arvensis
[8] = test system: Viola arvensis; test: Ratio of compound ED90 to ioxynil ED90 for herbicidal activity against Viola arvensis
[9] = target: T1, Protoporphyrinogen oxidase 2 (Spinacia oleracea) (UniProt Q94IG7); test: Inhibition of Stellaria media protoporphyinogen oxidase assessed as herbicidal activity at 0.3 g/ha measured after 2 days after treatment under greenhouse by time-course analysis; design: scale not given: the % may be the effect or the level left
T1 sequence (whole entry): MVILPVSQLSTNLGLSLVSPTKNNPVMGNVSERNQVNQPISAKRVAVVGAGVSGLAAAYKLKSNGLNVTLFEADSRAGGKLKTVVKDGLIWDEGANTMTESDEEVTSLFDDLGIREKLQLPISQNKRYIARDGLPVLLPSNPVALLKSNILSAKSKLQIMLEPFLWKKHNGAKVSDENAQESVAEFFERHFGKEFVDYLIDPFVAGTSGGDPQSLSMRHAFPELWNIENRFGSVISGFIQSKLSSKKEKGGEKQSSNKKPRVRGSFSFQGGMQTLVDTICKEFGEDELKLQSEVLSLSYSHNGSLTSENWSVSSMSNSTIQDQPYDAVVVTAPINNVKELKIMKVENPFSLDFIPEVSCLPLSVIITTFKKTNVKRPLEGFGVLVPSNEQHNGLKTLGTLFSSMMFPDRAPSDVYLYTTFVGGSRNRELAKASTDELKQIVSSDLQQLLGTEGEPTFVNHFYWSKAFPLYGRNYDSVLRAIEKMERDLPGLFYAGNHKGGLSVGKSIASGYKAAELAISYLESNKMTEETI

[10] = test system: Viola arvensis; test: Herbicidal activity against Viola arvensis assessed as killing at 5 g/ha measured after 21 days after treatment under greenhouse by time-course analysis; format: functional
[11] = target: T2, Protoporphyrinogen oxidase, chloroplastic (Nicotiana tabacum) (UniProt O24163); test: Inhibition of Veronica hederaefolia protoporphyrinogen oxidase by post-emergence herbicidal activity assay; details: Veronica hederifolia
T2 sequence (whole entry): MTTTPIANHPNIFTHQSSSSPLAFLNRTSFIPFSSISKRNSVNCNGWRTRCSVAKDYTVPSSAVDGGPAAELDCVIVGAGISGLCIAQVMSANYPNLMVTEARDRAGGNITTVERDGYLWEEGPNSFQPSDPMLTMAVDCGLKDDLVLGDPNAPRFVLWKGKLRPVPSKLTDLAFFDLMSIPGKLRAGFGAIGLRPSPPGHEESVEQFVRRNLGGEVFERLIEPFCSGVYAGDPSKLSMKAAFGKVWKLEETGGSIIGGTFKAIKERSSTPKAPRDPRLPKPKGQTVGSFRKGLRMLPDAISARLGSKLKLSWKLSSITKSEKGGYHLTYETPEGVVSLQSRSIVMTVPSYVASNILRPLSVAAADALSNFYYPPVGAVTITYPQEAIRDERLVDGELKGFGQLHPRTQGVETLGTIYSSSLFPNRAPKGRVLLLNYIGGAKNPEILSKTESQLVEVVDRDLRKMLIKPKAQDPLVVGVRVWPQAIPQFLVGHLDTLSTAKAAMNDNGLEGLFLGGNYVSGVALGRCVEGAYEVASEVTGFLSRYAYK

[12] = target: T2, Protoporphyrinogen oxidase, chloroplastic (Nicotiana tabacum); test: Inhibition of Galium aparine protoporphyrinogen oxidase by post-emergence herbicidal activity assay
[13] = test system: Veronica hederifolia; test: Herbicidal activity against Veronica hederaefolia assessed as killing at 300 g/ha post emergence application measured after 21 days after treatment; format: functional
[14] = test system: Veronica hederifolia; test: Herbicidal activity against Veronica hederaefolia assessed as killing at 10 g/ha pre emergence application measured after 21 days after treatment; format: functional
[15] = test system: Veronica hederifolia; test: Herbicidal activity against Veronica hederaefolia assessed as killing at 10 g/ha post emergence application measured after 21 days after treatment; format: functional
[16] = test system: Veronica hederifolia; test: Herbicidal activity against Veronica hederaefolia assessed as killing at 3 g/ha post emergence application measured after 21 days after treatment; format: functional
[17] = test system: Viola arvensis; test: Herbicidal activity against Viola arvensis assessed as killing at 100 g/ha post emergence application measured after 21 days after treatment; format: functional
[18] = test system: Viola arvensis; test: Herbicidal activity against Viola arvensis assessed as killing at 30 g/ha post emergence application measured after 21 days after treatment; format: functional
[19] = test system: Stellaria media; test: Herbicidal activity against Stellaria media assessed as killing at 10 g/ha pre emergence application measured after 21 days after treatment; format: functional
[20] = test system: Stellaria media; test: Herbicidal activity against Stellaria media assessed as killing at 0.3 g/ha post emergence application measured after 21 days after treatment; format: functional
[21] = test system: Galium aparine; test: Herbicidal activity against Galium aparine assessed as killing at 100 g/ha post emergence application measured after 21 days after treatment; format: functional
[22] = test system: Galium aparine; test: Herbicidal activity against Galium aparine assessed as killing at 1 g/ha post emergence application measured after 21 days after treatment; format: functional
[23] = test system: Galium aparine; test: Herbicidal activity against Galium aparine assessed as killing at 0.3 g/ha post emergence application measured after 21 days after treatment; format: functional
[24] = test system: Avena fatua; test: Herbicidal activity against Avena fatua assessed as killing at 300 g/ha post emergence application measured after 21 days after treatment; format: functional
[25] = test system: Avena fatua; test: Herbicidal activity against Avena fatua assessed as killing at 10 g/ha pre emergence application measured after 21 days after treatment; format: functional, organism-based
[26] = test system: Avena fatua; test: Herbicidal activity against Avena fatua assessed as killing at 3 g/ha post emergence application measured after 21 days after treatment; format: functional
[27] = test system: Viola arvensis; test: Herbicidal activity against Viola arvensis assessed as killing at 10 g/ha post emergence application measured after 21 days after treatment; format: functional
[28] = test system: Hordeum vulgare; test: Phytotoxicity in Hordeum vulgare (barley) assessed as injury at 100 g/ha pre emergence application measured after 21 days after treatment; format: organism-based; details: in vivo, other, 504 h
[29] = test system: Hordeum vulgare; test: Phytotoxicity in Hordeum vulgare (barley) assessed as injury at 30 g/ha pre emergence application measured after 21 days after treatment; format: organism-based; details: in vivo, other, 504 h
[30] = test system: Hordeum vulgare; test: Phytotoxicity in Hordeum vulgare (barley) assessed as injury at 10 g/ha post emergence application measured after 21 days after treatment; format: organism-based; details: in vivo, other, 504 h
[31] = test system: Hordeum vulgare; test: Phytotoxicity in Hordeum vulgare (barley) assessed as injury at 3 g/ha post emergence application measured after 21 days after treatment; format: organism-based; details: in vivo, other, 504 h
[32] = test system: Triticum aestivum; test: Phytotoxicity in Triticum aestivum (wheat) assessed as injury at 100 g/ha pre emergence application measured after 21 days after treatment; format: organism-based; details: in vivo, other, 504 h
[33] = test system: Triticum aestivum; test: Phytotoxicity in Triticum aestivum (wheat) assessed as injury at 30 g/ha pre emergence application measured after 21 days after treatment; format: organism-based; details: in vivo, other, 504 h

CCOC(=O)COc1cc(-c2nn(C)c(OC(F)F)c2Cl)c(F)cc1Cl [PYRAFLUFEN-ETHYL]
Activity [1]: 11%
Activity [2]: 1%
Activity [3]: 1%
Activity [4]: inactive
Activity [5]: inactive
Activity [6]: 11%
Ratio [7]: 200
Ratio [8]: 10
Activity [9]: 90%
Activity [10]: 90%
ED90 [11]: 1 gAi/ha
ED90 [12]: 1.5 gAi/ha
Activity [13]: 80%
Activity [14]: 1%
Activity [15]: 100%
Activity [16]: 100%
Activity [17]: 40%
Activity [18]: 40%
Activity [19]: 21%
Activity [20]: 90%
Activity [21]: 40%
Activity [22]: 80%
Activity [23]: 60%
Activity [24]: 21%
Activity [25]: inactive
Activity [26]: 1%
Activity [27]: 100%
Activity [28]: 1%
Activity [29]: Non-toxic
Activity [30]: 11%
Activity [31]: 1%
Activity [32]: 1%
Activity [33]: Non-toxic
